Where “and” joins values, the source holds several entries; their conditions need not be identical. Equal entries are not always repeated.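 Grown in 96-well plates, cells were treated for 48 hours with each compound at five concentrations. Insufficient inhibition: endpoint recorded as highest concentration tested. GI50: concentration for 50% inhibition of growth. Definition used: TGI = concentration required for complete inhibition of growth.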
Tests used:
Assay in all cases: NCI anticancer screen, dose series, 48 h
NCI/ADR-RES ovarian = test system: NCI/ADR-RES ovarian
A549 NSCLC = test system: A549 NSCLC
786-0 renal = test system: 786-0 renal
RPMI-8226 leukemia = test system: RPMI-8226 leukemia
SW-620 colon = test system: SW-620 colon
HOP-62 NSCLC = test system: HOP-62 NSCLC
SR leukemia = test system: SR leukemia
SK-MEL-5 melanoma = test system: SK-MEL-5 melanoma
M14 melanoma = test system: M14 melanoma
RXF 393 renal = test system: RXF 393 renal

SMILES | GI50 (NCI/ADR-RES ovarian) | TGI (NCI/ADR-RES ovarian) | GI50 (A549 NSCLC) | TGI (A549 NSCLC) | GI50 (786-0 renal) | TGI (786-0 renal) | GI50 (RPMI-8226 leukemia) | TGI (RPMI-8226 leukemia) | GI50 (SW-620 colon) | TGI (SW-620 colon) | GI50 (HOP-62 NSCLC) | TGI (HOP-62 NSCLC) | GI50 (SR leukemia) | TGI (SR leukemia) | GI50 (SK-MEL-5 melanoma) | TGI (SK-MEL-5 melanoma) | GI50 (M14 melanoma) | TGI (M14 melanoma) | GI50 (RXF 393 renal) | TGI (RXF 393 renal)
CN(C)c1cc2c(Nc3ccc4c(cnn4Cc4ccccc4)c3)ncnc2cn1 | 5.85 µM | > 25 µM | 7.49 µM | > 25 µM | 8.76 µM | > 25 µM | 10.9 µM | > 25 µM | 15.3 µM | > 25 µM | 8.35 µM | > 23.9 µM | 12.8 µM | > 25 µM | 7.61 µM | > 20.5 µM | 14.8 µM | > 25 µM | 8.3 µM | > 20.8 µM
O=C(N/N=C/c1cc(Cl)ccc1O)c1ccccc1Nc1ccnc(C(F)(F)F)c1 | 0.473 µM | 9.03 µM | 1.26 µM | 23.3 µM | 0.465 µM | 4.29 µM | 0.174 µM | 1.2 µM | 0.612 µM | 12.7 µM | 0.334 µM | 3.65 µM | 0.246 µM | 1.76 µM | 0.57 µM | 5.33 µM | 0.407 µM | 2.26 µM | 0.517 µM | 14.1 µM
CC(C)(O)CCc1cccc(C(=O)c2cnn(-c3ccc(F)cc3)c2N)c1 | > 21.9 µM | > 25 µM | > 25 µM | > 25 µM | > 25 µM | > 25 µM | > 25 µM | > 25 µM | > 25 µM | > 25 µM | > 25 µM | > 25 µM | > 25 µM | > 25 µM | 13.5 µM | > 25 µM | > 25 µM | > 25 µM | > 25 µM | > 25 µM
COc1cc2c(NC3CCN(C(C)C)CC3)nc(C3CCCCC3)nc2cc1OCCCN1CCCC1 | 24.9 µM | > 78.8 µM | 3.38 µM | 13.3 µM | 6.14 µM | 17.7 µM | 2.42 µM | 7.75 µM | 2.15 µM | 6.45 µM | 3.22 µM | 10.1 µM | 3.25 µM | 10.2 µM | 1.68 µM | 3.11 µM | 1.71 µM | 3.26 µM | 1.8 µM | 4.27 µM
Oc1ccc(Cl)cc1Sc1cc(Cl)ccc1O | 2.48 µM | 57.8 µM and 7.47 µM | 3.91 µM | 58.6 µM and 13.7 µM | 11.9 µM | 33 µM and 25.2 µM | 1.97 µM |  | 4.02 µM | 39.6 µM and 13.8 µM | 3.04 µM | 32.9 µM and 12 µM | 3.53 µM | 51.6 µM and 12.2 µM | 1.92 µM | 15.7 µM and 4.06 µM | 3.83 µM | 26 µM and 12.7 µM | 4.88 µM | 31.1 µM and 17.1 µM
C=C1C(=O)O[C@@H]2CC(CO)=C([C@@H](C)CCCO)[C@@H](OC(=O)/C(C)=C\C)[C@H]12 |  | 75.4 µM |  | > 71.9 µM |  | 52.1 µM |  | 31 µM |  | 44.5 µM |  | > 100 µM |  | 8.22 µM |  | 34.6 µM |  | > 81.4 µM |  | 37.7 µM
OC(CN1CCCC2CCCCC21)c1cc2ccccc2c2ccccc12 (stereo not drawn) | 2.07 µM | 5.19 µM | 4.65 µM | 19.1 µM | 1.84 µM | 3.6 µM | 1.6 µM | 3.87 µM | 1.66 µM | 3.36 µM | 1.84 µM | 3.91 µM | 1.6 µM | 3.43 µM | 1.67 µM | 3.05 µM | 1.52 µM | 2.86 µM | 1.71 µM | 3.59 µM
CCCS(=O)c1nc(COC(=O)NC)c(COC(=O)NC)n1C (stereo not drawn) |  | > 100 µM |  | > 100 µM |  | > 100 µM |  | > 100 µM |  | > 100 µM |  | > 100 µM |  | > 100 µM |  | > 100 µM |  | > 100 µM |  | > 100 µM
NC(Cc1cccnn1)C(=O)O (stereo not drawn) |  | > 100 µM |  | > 100 µM |  | > 100 µM |  | > 100 µM |  | > 100 µM |  | > 100 µM |  | > 100 µM |  | > 100 µM |  | > 100 µM |  | > 100 µM
O=C1C(Cl)=C(Nc2cc(Cl)ccc2O)C(=O)N1Cc1ccccc1 | 18.9 µM | 37.4 µM | 17 µM | 36.7 µM | 18.2 µM | 33 µM | 11.9 µM | 39.5 µM | 19 µM | 38.5 µM | 34 µM | > 61 µM | 38.6 µM | > 67.7 µM | 16.1 µM | 29.9 µM | 17.1 µM | 33.3 µM | 14.1 µM | 30.3 µM
O=C1CC(Cc2n[nH]c3c2CCCC3)CC(=O)N1 |  | > 100 µM |  | > 100 µM |  | > 100 µM |  | > 100 µM |  | > 100 µM |  | > 100 µM |  | > 100 µM |  | > 100 µM |  | > 100 µM |  | > 100 µM
CC(=O)O[C@@H]1C2=C(C)C3(CC3)[C@@](C)(O)C(=O)C2=C[C@@]1(C)CO | 0.416 µM | 4.11 µM | 1.05 µM | 24.2 µM | 2.04 µM | 6.1 µM | 0.372 µM | 3.14 µM | 0.355 µM | > 100 µM | 0.474 µM | 4.52 µM | 0.271 µM | > 100 µM | 1.73 µM | 3.2 µM | 0.34 µM | 1.61 µM | 0.24 µM | 0.658 µM
C[C@@H](CS[As](C)C)C(=O)N1CCC[C@H]1C(=O)O | 0.224 µM | 0.581 µM | 1.58 µM | > 100 µM | 0.0752 µM | 1.01 µM | 0.0262 µM | 0.0831 µM | 0.25 µM | 2.05 µM | 0.897 µM | 5.11 µM | 0.0553 µM | 0.272 µM | 0.152 µM | 0.436 µM | 0.105 µM | 0.829 µM | 0.194 µM | 2.81 µM
COc1c(B(O)O)cccc1-c1nc2ccc3[nH]ncc3c2c2c1CCCC2 | 2.25 µM | 15.2 µM | 2.55 µM | > 34.9 µM | 1.2 µM | 11.9 µM | 0.936 µM | 7.01 µM | 1.17 µM | 12.1 µM | 1.31 µM | 19.6 µM | 1.13 µM | 13.9 µM | 3.18 µM | 12.5 µM | 4.06 µM | 13.2 µM | 0.0225 µM | 1.25 µM
Cc1ccc(NC(=S)C#N)c(C)c1 |  | > 100 µM |  | > 100 µM |  | > 100 µM |  | 76 µM |  | > 100 µM |  | > 100 µM |  | > 100 µM |  | > 100 µM |  | > 100 µM |  | > 100 µM
C=C1C(=O)O[C@H]2[C@H]1CC/C(COC(=O)CCCCCCCC(=O)OC/C1=C/CC[C@@]3(C)O[C@H]3[C@H]3OC(=O)C(=C)[C@@H]3CC1)=C\CC[C@@]1(C)O[C@@H]21 | 3.35 µM | > 100 µM | 11.1 µM | 28.8 µM | 1.68 µM | 3.63 µM | 1.31 µM | 6.46 µM | 1.46 µM | 3.24 µM | 2.19 µM | 5.68 µM | 0.398 µM | 10.6 µM | 1.98 µM | 4.1 µM | 1.77 µM | 4.11 µM | 1.43 µM | 2.88 µM
C[C@H]1COCCN1c1nc(-c2cnc(N)cc2C(F)F)nc(N2CCOCC2)n1 | 0.253 µM | > 21.7 µM | 0.199 µM | > 100 µM | 0.181 µM | 5.15 µM | 0.134 µM | 4.91 µM | 0.258 µM | > 100 µM | 0.414 µM | > 100 µM | 0.275 µM | 29.1 µM | 0.15 µM | 0.651 µM | 0.129 µM | 29.7 µM | 0.129 µM | 0.617 µM
CCN(CC)S(=O)(=O)c1cccc(-c2ccc3c(NC(=O)C4CC4)n[nH]c3c2)c1 | > 6.25 µM | > 6.25 µM | 2.79 µM | > 6.25 µM | 2.5 µM | > 6.25 µM | 1.6 µM | > 6.25 µM | 2.27 µM | > 6.25 µM | 2.54 µM | > 6.25 µM | 0.259 µM | > 6.25 µM | 0.986 µM | 3.58 µM | 1.47 µM | > 6.25 µM | 1.94 µM | 5.17 µM
c1cc(C2CCCCC2)ccc1-c1cnc2nonc2n1 | 0.466 µM | 2.72 µM | 2.74 µM | 12.2 µM | 0.506 µM | 1.9 µM | 0.4 µM | 2.79 µM | 0.502 µM | 2.45 µM | 1.21 µM | 5.98 µM | 0.348 µM |  | 1.29 µM | 2.62 µM | 0.499 µM | 2.16 µM | 0.514 µM | 1.56 µM
COc1cccc(N2CCN(c3ncnc4cc[nH]c34)CC2)c1 | 2.87 µM | 40.4 µM | 12.2 µM | > 100 µM | 29.1 µM | > 100 µM | 2.78 µM | 94.8 µM | 68.6 µM | > 100 µM | 17.8 µM | > 100 µM | 1.73 µM | > 100 µM | 0.394 µM | 2.77 µM | 3.76 µM | 26.3 µM | 33.6 µM | > 100 µM
O=C(N=Nc1c(Cl)c(O)c2ccccc2c1O)C(=O)Nc1cccc(C(F)(F)F)c1 | 3.52 µM | 17.7 µM | 3.79 µM | 16.7 µM | 12.6 µM | 25.1 µM | 3.49 µM | 15.6 µM | 3.24 µM | 15.6 µM | 11.5 µM | 24.7 µM | 3.08 µM | 17.1 µM | 1.7 µM | 3.98 µM | 1.96 µM | 4.1 µM | 5.81 µM | 18.8 µM
CSc1nnc(-c2cc3c([nH]c4ccccc43)c(-c3cccc(O)c3)n2)n1-c1ccc(C)cc1 | 5.64 µM | > 100 µM | 3.79 µM | 24.6 µM | 4.61 µM | 32.2 µM | 5.31 µM | > 100 µM | 5.8 µM | > 100 µM | 2.47 µM | 7.45 µM | 2.09 µM | > 100 µM | 2.38 µM | 11.5 µM | 3.83 µM | > 100 µM | 2.11 µM | 6.51 µM
C=CCC(N[C@H](CO)c1ccccc1)c1ccccn1 (stereo partly drawn) | > 100 µM | > 100 µM | > 100 µM | > 100 µM | > 100 µM | > 100 µM | > 100 µM | > 100 µM | > 100 µM | > 100 µM | > 100 µM | > 100 µM | > 100 µM | > 100 µM | > 100 µM | > 100 µM | > 100 µM | > 100 µM | > 100 µM | > 100 µM
